The structures appear in SMILES notation. Read-outs that look alike come from different tables or passages of the source.

The test system of assay [1] is neural retina oxidative stress / photoreceptor layer. Nature of the assay: Light-induced retinal degeneration in dark adapted rats. In kind it is in vivo, Wistar rats. The text has this: In the neural retina of dark adapted rats, exposure to light also results in the generation of ROS, iron dysregulation, and the release of iron from ferritin. In this animal model of age-related macular degeneration (AMD), Wistar rats were either orally treated with diet containing 0.05% of the multifunctional antioxidant JHX-4 or topically treated b.i.d. with Optixcare EH, with treatment beginning at the onset of two weeks of dark adaption.
As previously described in detail by Randazzo et al. (PLoS One, 2011, 6(7), p. e21926), groups containing twelve 4-5-week-old male Wistar rats receiving either normal rat chow (untreated), normal rat chow and topically treated with Optixcare EH b.i.d., or oral diet containing 0.05% of the multifunctional antioxidant JHX-4 were dark adapted for two weeks. Rats from each group were then individually placed into acrylic, flat bottom rodent restraints (Plas-labs, Inc., Lansing Mich.) in a light box apparatus and exposed for three hours to 1000 1× of cool white fluorescent lights (Lights of America, Los Angeles, Calif.). An additional group of non-treated rats were also placed into the light box apparatus for three hours, but not exposed to light (non-light-damaged rats, NLD). Immediately following light exposure, 8 light-damaged (LD) rats from each group and 8 NLD rats were immediately euthanized and the neural retinas were carefully dissected from the enucleated eye and frozen on dry ice for subsequent analysis. Subsequently, the thawed retinas were homogenized in lysis buffer for ELISA determinations using 4-HNE-His Adduct and Nitrotyrosine ELISA Kits. Additional thawed retinas were homogenized in RIPA buffer containing Halt Protease and Phosphatase Inhibitor Cocktail for western blot analysis of thioredoxin (TRx) and thioredoxin reductase (TRxR) expression levels. Protein samples were separated by SDS-PAGE and transferred onto nitrocellulose membranes. After blocking the membrane with 5% dry milk in 0.1% TBS-T, the membranes were then incubated overnight at 4° C. with the primary antibodies anti-TRx (1:1000 dilution) or anti-TRxR (1:2000 dilution). Subsequently, after washing with TBS-T, the membranes were incubated with a HRP-conjugated secondary antibody for 1 hour. The protein bands were visualized by chemiluminescence and exposure to x-ray film. Finally, the membranes were re-probed with antibody against GAPDH as an internal control. All visualized protein levels were quantified using the NIH ImageJ program available online at rsbweb.nih.gov/ij/.
Therefore, topical administration of Optixcare EH to light-exposed dark-adapted rats was not anticipated to result in any significant protection of retinal oxidative stress compared to the oral administration of the multifunctional antioxidant JHX-4. […] ROS and free radicals generated by retinal exposure to acute excessive light are also mediated by the thioredoxin (TRx)/thioredoxin reductase (TRxR) defense system. Therefore, the expression levels of both TRx and TRxR in the neural retinas of these rats were also examined.
The reduction of oxidative stress by JHX-4 and Optixcare EH was confirmed by histological measurements of the photoreceptor layers. After light exposure as described above, select rats in each group were returned to the dark environment for 7 additional days. Each rat was then euthanized by carbon dioxide asphyxiation, and the dorsal ventral orientation of each eye was marked with a cautery tool. […]

Assay [2] has as its system lens oxidative stress after UV irradiation. The experiment in a line: UV-induced cataract model: lens GSH and 4-HNE after UV irradiation. It is filed as in vivo, Sprague Dawley rats. An excerpt:
Exposure to UV irradiation is another major risk factor of cataractogenesis. UV-irradiation induces ROS, which results in a rapid loss of reduced lens gluthione (GSH), the major antioxidant in the lens, followed several weeks later by subsequent lens opacification. For this study, young female Sprague Dawley rats were divided into five equal groups. One group served as the non-irradiated control group, while the second group served as the untreated irradiated control group. The third group received topical Optixcare carbomer vehicle containing 3% JHX-4 (4-(5-hydroxypyrimidin-2-yl)-N,N-dimethyl-3,5-dioxopiperazine-1-sulfonamide (99% pure by HPLC), the fourth received the present antioxidant eye drops composition, prepared as described above and referred to as topical Optixcare EH, and the fifth group received 1 mL of the oral Ocu-GLO™ by gavage, as described above. Treatments began 3 days prior to irradiation and continued until termination of the experiment. Prior to irradiation, each rat was anesthetized by intraperitoneal (i.p.) injection of a mixture of 60 mg/kg of ketamine and 10 mg/kg of xylazine, and the right eye was dilated with 1% tropicamide ophthalmic solution. The contralateral eye was covered with an eye patch that was held in place with black tape. […] Protein levels in an aliquot of the supernatant were measured according to Bradford Assay. Another aliquot was deproteinized with equal volume of 20% TCA and the GSH levels in the deproteinized supernatants were measured at 412 nm according to the DTNB method.
To confirm that the reduced GSH levels after UV exposure were linked to increased levels of ROS, the lenticular levels of the oxidized membrane lipid 4-hydroxynonenol (4-HNE) were determined using a competitive ELISA in the remaining homogenate supernatants by using the OxiSelect HINE Adduct Competitive ELISA Assay Kit (Cell Biolabs, Inc., San Diego, Calif.) according to the manufacturer's instructions.

Another assay concerns human RPE19 cells. More on the design: unit of the concentration uncertain. The following applies: cited from earlier work.
The mark [3] stands for this setting: after 3 hours light exposure, ELISA.

With `CN(C)S(=O)(=O)N1CC(=O)N(c2ncc(O)cn2)C(=O)C1` [JHX-4, 4-(5-hydroxypyrimidin-2-yl)-N,N-dimethyl-3,5-dioxopiperazine-1-sulfonamide], the “photoreceptor layer (outer nuclear layer thickness), histology” value in assay [1] (7 days in the dark after light exposure) was “only slightly decreased”. In addition, in assay [1] (setting [3]), the “4-HNE-histidine adduct levels in the neural retina (FIG. 5A)” value is on record as “neither oxidative marker significantly increased” and the “nitrotyrosine adduct levels in the neural retina (FIG. 5B)” value was “neither oxidative marker significantly increased”. The “expression of thioredoxin (TRx) in the neural retina (FIG. 6A)” value in assay [1] (light exposed rats, western blot) is reported as “reduced”. For the same compound, the “expression of thioredoxin reductase (TRxR) in the neural retina (FIG. 6B)” value in assay [1] (light exposed rats, western blot, p<0.05) is listed as “significantly lowered”. The “lenticular 4-HNE levels vs untreated rats exposed to UV irradiation (FIG. 4)” value in assay [2] (UV exposed lenses, competitive ELISA) is listed as “significantly lower”. For the same compound, in assay [2] (competitive ELISA), the “4-HNE lens levels, UV exposed vs unexposed contralateral eyes” value is “statistically similar”. Moreover, in assay [2] (pretreated 3 days, two days after 15 minutes UV irradiation), the “lens GSH levels, UV irradiated eye vs unexposed contralateral lens (FIG. 3)” value was “not significantly lower”.
For `Oc1ccc(C=Cc2cc(O)cc(O)c2)cc1` [resveratrol], the “reduction of in vitro proliferation of human RPE19 cells” value in the assay on human RPE19 cells (50 (unit uncertain)) was 10%; in the assay with human RPE19 cells (100 (unit uncertain)) it was 25%.
